Results taken from patent US9765063B2, “Amido compounds as RORγt modulators and uses thereof” (New York University, priority 2011, dated 2017).
Where two headings read alike, the source gives them in different places.

How the values were obtained:
RORγt = target: T1, RORγt (Mus musculus, UniProt P51450); assay: RORγt S2 cell reporter assay (Gal4-RORγt fusion, UAS-luciferase); type: cell-based; conditions: for IC50: Drosophila S2 cells, luciferase reporter, read-out: IC50; for Emax: % of the maximal response of control inhibitor (Digoxin), set at 100%, read-out: Efficacy (%)
T1 construct: expressed in transfected cells; the other entry of the earlier key: GAL4 (P04386, Regulatory protein GAL4)
From the text: Methods: The Drosophila S2 cell line was originally purchased from Invitrogen and was maintained in Schneider's medium supplemented with 10% heat-inactivated bovine fetal calf serum and antibiotics (Invitrogen). […] The resulting chimeric gene was subcloned into the copper inducible pMT/V5-His A vector (available from Invitrogen).
Renilla luciferase construct under the polIII promoter was obtained from Dr. Dasgupta's laboratory (NYU medical center). In order to generate stable cell lines, cells were co-transfected with pMT-G4DBD-RORγt, pMT-G4DBD-RORα, pMT-G4DBD-DHR3, or pMT-G4DBDVP16 and pHygro plasmids (Invitrogen) and screened for resistant colonies in the presence of hygromycin (0.3 mg/mL). […] Using similar methods, stable clones with genomic integration of the luciferase reporters and other reporters were generated such as pMT-RORα_luc, pMT-DHR3_luc, or pMT-VP16_luc.
Methods: 600 G4DBD-RORγ/γt-luc reporter (#25) or G4DBD-VP16-luc reporter cells were distributed into each well of 1,536-well white bottom plates in 4 μl S2 cell culture volume containing hygromicin (300 μg/ml) and puromycin (2 μg/ml). […] After one-hour incubation, 1 of culture medium solution containing copper sulfate (to final 0.7 mM) and 10 μM RORγ/γt antagonists were added to each well. After 20-hour incubation at ambient temperature, 1.5 μl firefly luciferase detection mix was added and the luciferase activities were measured in 10 min. ViewLux luminometers were used for measuring luciferase signal.
A cell-based reporter assay was used to detect RORγt-mediated activity. This assay, called RORγt employed Drosophila Schneider cells that were stably transfected with two vectors: a gene expressing a fusion of the Gal4 DNA binding domain and RORγt transactivation domain under the control of the metallothionine promoter and a Photinus luciferase reporter regulated by the Gal4 binding site enhancer, UAS. […] Cells (600/well) were dispensed into white solid 1536-well plates (Greiner) using a solenoid-based dispenser. Following transfer of […] compound or DMSO vehicle by a pin tool, the plates were incubated 1 hr at ambient temperature, and 1 uL/well copper sulfate (700 uM final concentration) was added. The plates were centrifuged 15 s at 1000 RPM and incubated 20 hr at ambient temperature. After addition of 1.5 uL Photinus luciferase detection reagent, the plates were incubated 10 min at ambient temperature and then read by a ViewLux (Perkin Elmer) to detect luminescence. […] Efficacy is expressed as % of the maximal response of control inhibitor (Digoxin), set at 100%.

[1] = Half-life in Human Liver Microsomes (HLM); type: in vitro ADME; conditions: for % Remaining @ 60 min / half-life at 1 μM / microsomal CLint at 1 μM: 1 μM compound, 0.78 mg/mL HLM, 37° C.; for half-life at 1 μM / microsomal CLint at 1 μM: human, human liver microsomes, pH 7.4; for half-life at 1 μM: Half-life=ln 2/k; for microsomal CLint at 1 μM: read-out: CLint (uM/Min/mg proteins)
Protocol: Test compounds (1 μM) are incubated with 3.3 mM MgCl2 and 0.78 mg/mL HLM (HL101) in 100 mM potassium phosphate buffer (pH 7.4) at 37° C. on the 96-deep well plate. The reaction mixture is split into two groups, a non-P450 and a P450 group. NADPH is only added to the reaction mixture of the P450 group. An aliquot of samples of the P450 group is collected at 0, 10, 30, and 60 min time points, where the 0 min time point indicated the lime at which NADPH is added into the reaction mixture of the P450 group. […] Collected aliquots are extracted with acetonitrile solution containing an internal standard. […] The compound concentration in supernatant is measured by LC/MS/MS system.
The half-life value is obtained by plotting the natural logarithm of the peak area ratio of compounds/internal standard versus time. The slope of the line of best fit through the points yields the rate of metabolism (k). This is converted to a half-life value using following equations: Half-life=ln 2/k

T1 sequence (P51450 with tags, fused parts or gaps): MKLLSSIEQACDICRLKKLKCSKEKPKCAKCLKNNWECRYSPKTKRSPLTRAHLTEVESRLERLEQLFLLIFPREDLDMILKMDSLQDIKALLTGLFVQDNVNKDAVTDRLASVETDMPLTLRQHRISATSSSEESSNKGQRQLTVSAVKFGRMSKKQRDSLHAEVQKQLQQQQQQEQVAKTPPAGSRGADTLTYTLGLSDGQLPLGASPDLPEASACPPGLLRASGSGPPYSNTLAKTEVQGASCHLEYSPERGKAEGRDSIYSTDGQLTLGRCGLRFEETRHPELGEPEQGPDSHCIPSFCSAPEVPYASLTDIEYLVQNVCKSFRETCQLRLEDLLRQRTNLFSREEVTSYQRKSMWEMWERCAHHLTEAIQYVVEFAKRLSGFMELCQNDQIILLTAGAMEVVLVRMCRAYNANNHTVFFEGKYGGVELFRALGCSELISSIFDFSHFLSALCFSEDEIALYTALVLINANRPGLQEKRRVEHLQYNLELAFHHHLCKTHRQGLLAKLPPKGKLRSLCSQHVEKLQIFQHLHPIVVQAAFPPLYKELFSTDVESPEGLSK

| SMILES | Emax (RORγt; Table 1) [%] | IC50 (RORγt; Table 1) [µM] | further results |
| --- | --- | --- | --- |
| COc1cc(O)c(C(CC(=O)N2CC(C)C[C@@H](C)C2)c2nc3ccccc3s2)c(OC)c1 (stereo in doubt) [Compound 205, 1-(3,5-Dimethylpiperidin-1-yl)-3-(4,6-dimethoxy-2-hydroxy-phenyl)-3-(benzothiazol-2-yl)propan-1-one] |  |  | IC50 (RORγt; Table 1A): < 1 µM |
| COc1cc(O)c(C(CC(=O)N2CCCC(C)C2)c2cccs2)c(OC)c1 (stereo not drawn) [Compound 70] | 95 | 1 to 10 |  |
| COc1cc(O)c(C(CC(=O)N2CC(C)CC(C)C2)c2csc3ccccc23)c(OC)c1 (stereo not drawn) [Compound 79] | -90.8 | 1 to 10 |  |
| COc1cc(O)c(C(CC(=O)N2CC(C)CC(C)C2)c2cccc(S(C)(=O)=O)c2)c(OC)c1 (stereo not drawn) [Compound 83, 1-(3,5-Dimethylpiperidin-1-yl)-3-(2-hydroxy-4,6-dimethoxyphenyl)-3-(3-(methylsulfonyl)phenyl)propan-1-one] | 93.8 | 1 to 10 |  |
| COc1cc(O)c(C(CC(=O)N2CC(C)CC(C)C2)c2ccc(S(=O)(=O)N(C)C)cc2)c(OC)c1 (stereo not drawn) [Compound 84] | 103 | 11 to 50 |  |
| COc1cc(O)c(C(CC(=O)N2CC(C)CC(C)C2)c2ccc(C(=O)NC3CC3)cc2)c(OC)c1 (stereo not drawn) [Compound 95] |  | 1 to 10 |  |
| COc1cc(O)c(C(CC(=O)N2CC(C)CC(C)C2)c2ccc(C(C)=O)cc2)c(OC)c1 (stereo not drawn) [Compound 100, 3-(4-Acetylphenyl)-1-(3,5-dimethylpiperidin-1-yl)-3-(2-hydroxy-4,6-dimethoxyphenyl)propan-1-one] | 93.6 | < 1 |  |
| COc1cc(O)c(C(CC(=O)N2CC(C)CC(C)C2)c2cccnc2)c(OC)c1 (stereo not drawn) [Compound 106, 1-(3,5-Dimethylpiperidin-1-yl)-3-(2-hydroxy-4,6-dimethoxyphenyl)-3-(pyridin-3-yl)propan-1-one] | 96.9 | 1 to 10 |  |
| COc1cc(O)c(C(CC(=O)N2CC(C)CC(C)C2)c2cccs2)c(OC)c1 (stereo not drawn) [Compound 107, 1-(3,5-Dimethylpiperidin-1-yl)-3-(2-hydroxy-4,6-dimethoxyphenyl)-3-(thiophen-2-yl)propan-1-one] | 94.9 | 1 to 10 |  |
| COc1cc(O)c(C(CC(=O)N2CC(C)CC(C)C2)c2ccncc2)c(OC)c1 (stereo not drawn) [Compound 108, 1-(3,5-Dimethylpiperidin-1-yl)-3-(2-hydroxy-4,6-dimethoxyphenyl)-3-(pyridin-4-yl)propan-1-one] | 119 | 11 to 50 |  |
| COc1cc(O)c(C(CC(=O)N2CC(C)CC(C)C2)c2ccc(C(N)=O)cc2)c(OC)c1 (stereo not drawn) [Compound 111] | 96.7 | 1 to 10 |  |
| COc1c(C(CC(=O)N2CC(C)CC(C)C2)c2ccc3c(c2)OCO3)c(O)cc2occc12 (stereo not drawn) [Compound 139] | 94.5 | 1 to 10 |  |
| CC1CC(C)CN(C(=O)CC(c2ccc(-n3cncn3)cc2)c2ccc3c(c2)OCO3)C1 (stereo not drawn) [Compound 141, 3-(4-(1H-1,2,4-Triazol-1-yl)phenyl)-3-(benzo[d][1,3]dioxol-5-yl)-1-(3,5-dimethylpiperidin-1-yl)propan-1-one] |  |  | % Remaining @ 60 min [1]: 9.02%; stability compared with compounds 150 and 157 ([1]; HLM, Table 3 data): better or improved stability over the compounds with IDs 150 and 157; half-life at 1 μM [1]: 12.9 min; microsomal CLint at 1 μM [1]: 108 µL/min/mg |
| CC1CC(C)CN(C(=O)CC(c2ccc3c(c2)OCO3)c2c(O)ccc3cccnc23)C1 (stereo not drawn) [Compound 146] |  | 1 to 10 |  |
| COc1cc(OC)c(C(c2ccccc2)C(C)(C)C(=O)N2CC(C)OC(C)C2)c(OC)c1 (stereo not drawn) [Compound 150, reference compound] |  |  | % Remaining @ 60 min [1]: 6.79%; half-life at 1 μM [1]: 8 min; microsomal CLint at 1 μM [1]: 173 µL/min/mg |
| COc1ccc2ccccc2c1C(c1ccc(F)cc1)C(C)(C)C(=O)N1CC(C)CC(C)C1 (stereo not drawn) [Compound 157, reference compound] |  |  | % Remaining @ 60 min [1]: 6.78%; half-life at 1 μM [1]: 6.9 min; microsomal CLint at 1 μM [1]: 201 µL/min/mg |
| COc1cc(OC)c(C(CC(=O)N2C[C@H](C)C[C@H](C)C2)c2ccc(C(=O)O)cc2)c(OC)c1 (stereo partly drawn) [Compound 201, 4-(3-(3,5-cis-Dimethylpiperidin-1-yl)-3-oxo-1-(2,4,6-trimethoxyphenyl)-propyl)benzoic acid] | 87 | < 1 |  |
| COc1cc(O)c(C(CC(=O)N2C[C@H](C)C[C@H](C)C2)c2ccc(C(=O)O)cc2)c(OC)c1 (stereo partly drawn) [Compound 202, 4-(3-(3,5-cis-Dimethylpiperidin-1-yl)-1-(2-hydroxy-4,6-dimethoxyphenyl)-3-oxopropyl)benzoic acid] |  |  | IC50 (RORγt; Table 1A): < 1 µM |
| COc1cc(O)c(C(CC(=O)N2C[C@H](C)C[C@H](C)C2)c2c[nH]c(C)n2)c(OC)c1 (stereo partly drawn) [Compound 203] |  |  | IC50 (RORγt; Table 1A): 1 to 10 µM |
| COc1cc(O)c(C(CC(=O)N2C[C@H](C)C[C@H](C)C2)c2cnccn2)c(OC)c1 (stereo partly drawn) [Compound 204, 1-(3,5-Dimethylpiperidin-1-yl)-3-(4,6-dimethoxy-2-hydroxy-phenyl)-3-(pyrazin-2-yl)propan-1-one] |  |  | IC50 (RORγt; Table 1A): 1 to 10 µM |
| COc1cc(O)c(C(CC(=O)N2C[C@H](C)C[C@H](C)C2)c2ccc(OC)nc2)c(OC)c1 (stereo partly drawn) [Compound 206, 1-(3,5-Dimethylpiperidin-1-yl)-3-(4,6-dimethoxy-2-hydroxy-phenyl)-3-(2-methoxypyrid-5-yl)propan-1-one] |  |  | IC50 (RORγt; Table 1A): < 1 µM |
